In US20160075653A1, “NEMATICIDAL N-(PHENYLCYCLOALKYL)CARBOXAMIDES AND N-(PHENYLCYCLOALKYL)THIOCARBOXAMIDES” (BAYER CROPSCIENCE AKTIENGESELLSCHAFT, priority 2013, published 2016):

Assay: Measurement of log P values by HPLC on reversed phase columns (methods [a] pH 2.3, [b] pH 2.7, [c] pH 7.8)
Format: physicochemical
Conditions: HPLC on reversed phase column, method [b], pH 2.7
Procedure, shortened: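 Retention times were converted to log P by linear interpolation between linear alkan-2-one standards (3 to 16 carbons) of known log P. Eluents, each with 10% to 95% acetonitrile gradient: phosphoric acid 0.1% at pH 2.3 [a]; formic acid 0.1% at pH 2.7, LC-MS [b]; ammonium hydrogen carbonate 0.001 molar at pH 7.8, LC-MS [c].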

logP | Structure (SMILES)
3.18^[b] | O=C(NC1CCC1c1ccccc1C(F)(F)F)c1nccnc1C(F)(F)F (centres unmarked) [Example 604]
3.17^[b] | O=C(NC1CCC1c1ccccc1C(F)(F)F)c1ncccc1Br (centres unmarked) [Example 605]
2.49^[b] | CC1=C(C(=O)NC2CCC2c2ccccc2C(F)(F)F)S(=O)(=O)CCO1 (centres unmarked) [Example 606]
3.31^[b] | O=C(NC1CCC1c1ccccc1C(F)(F)F)c1nccnc1C(F)(F)F (centres unmarked) [Example 687]
3.34^[b] | O=C(NC1CCC1c1ccccc1C(F)(F)F)c1ncccc1Br (centres unmarked) [Example 691]
4.55^[b] | O=C(NC1CCC1c1ccc(Cl)cc1C(F)(F)F)c1sccc1I (centres unmarked) [Example 710]
4.28^[b] | O=C(NC1CCC1c1ccc(Cl)cc1C(F)(F)F)c1sccc1I (centres unmarked) [Example 711]

Same assay, conditions: HPLC on reversed phase column, method [c], pH 7.8

logP | Structure (SMILES)
3.10^[c]; | O=C(NC1CCC1c1ccccc1C(F)(F)F)c1nccnc1C(F)(F)F (centres unmarked) [Example 604]
3.10^[c]; | O=C(NC1CCC1c1ccccc1C(F)(F)F)c1ncccc1Br (centres unmarked) [Example 605]
2.45^[c]; | CC1=C(C(=O)NC2CCC2c2ccccc2C(F)(F)F)S(=O)(=O)CCO1 (centres unmarked) [Example 606]
3.25^[c]; | O=C(NC1CCC1c1ccccc1C(F)(F)F)c1nccnc1C(F)(F)F (centres unmarked) [Example 687]
3.27^[c]; | O=C(NC1CCC1c1ccccc1C(F)(F)F)c1ncccc1Br (centres unmarked) [Example 691]

Same assay, conditions: HPLC on reversed phase columns, method [b], pH 2.7

Structure (SMILES) | logP
Cn1cc(C(=O)NC2CCC2c2c(Cl)cccc2Cl)c(C(F)F)n1 (centres unmarked) [Example 726] | 2.90^[b]
O=C(NC1CCC1c1c(Cl)cccc1Cl)c1c(F)cccc1F (centres unmarked) [Example 727] | 3.33^[b]
O=C(NC1CCC1c1c(Cl)cccc1Cl)c1cccc(Cl)c1 (centres unmarked) [Example 729] | 3.87^[b]
Cc1nc(C(F)(F)F)c(C(=O)NC2CCC2c2ccc(Cl)cc2C(F)(F)F)s1 (centres unmarked) [Example 730] | 4.03^[b]
O=C(NC1CC1(F)c1ccc(Cl)cc1)c1ccccc1C(F)(F)F (centres unmarked) [Example 754] | 3.24^[b]
O=C(NC1CC1(F)c1ccc(Cl)cc1)c1ccccc1C(F)(F)F (centres unmarked) [Example 755] | 3.03^[b]

Results, then the compound that gave them:

logP | Structure (SMILES)
3.41^[b] | Cn1cc(C(=O)NC2CCC2c2ccc(Cl)cc2C(F)(F)F)c(C(F)F)n1 (centres unmarked) [Example 718]
3.17^[b] | Cn1cc(C(=O)NC2CCC2c2ccc(Cl)cc2C(F)(F)F)c(C(F)F)n1 (centres unmarked) [Example 719]
3.60^[b] | O=C(NC1CCC1c1ccc(Cl)cc1C(F)(F)F)c1cccnc1C(F)(F)F (centres unmarked) [Example 720]
3.36^[b] | O=C(NC1CCC1c1ccc(Cl)cc1C(F)(F)F)c1cccnc1C(F)(F)F (centres unmarked) [Example 721]
4.08^[b] | O=C(NC1CCC1c1ccc(Cl)cc1C(F)(F)F)c1ccccc1Br (centres unmarked) [Example 722]
3.80^[b] | O=C(NC1CCC1c1ccc(Cl)cc1C(F)(F)F)c1ccccc1Br (centres unmarked) [Example 723]
2.17^[b] | O=C(NC1CCC1c1c(Cl)cccc1Cl)c1cccnc1 (centres unmarked) [Example 724]
2.79^[b] | O=C(NC1CCC1c1c(Cl)cccc1Cl)c1cccnc1Cl (centres unmarked) [Example 725]
3.30^[b] | O=C(NC1CCC1c1c(Cl)cccc1Cl)c1ccccc1 (centres unmarked) [Example 728]
3.75^[b] | Cc1nc(C(F)(F)F)c(C(=O)NC2CCC2c2ccc(Cl)cc2C(F)(F)F)s1 (centres unmarked) [Example 731]

Same assay, conditions: HPLC reversed phase, method [b] (pH 2.7)

Structure (SMILES) | logP
O=C(NC1CCC1c1c(F)cccc1F)c1cccc(Cl)c1 (centres unmarked) [Example 442] | 3.26^[b]
O=C(NC1CCC1c1c(F)cccc1F)c1ccc(Cl)cc1 (centres unmarked) [Example 444] | 3.20^[b]
O=C(NC1CCC1c1ccc(Cl)cc1Cl)c1ccccc1 (centres unmarked) [Example 450] | 3.75^[b]
O=C(NC1CCC1c1ccc(Cl)cc1Cl)c1ccc(Cl)cc1 (centres unmarked) [Example 452] | 4.33^[b]
O=C(NC1CCC1c1ccc(Cl)cc1Cl)c1ccc(Cl)cc1 (centres unmarked) [Example 453] | 3.85^[b]
O=C(NC1CCC1c1ccc(Cl)cc1Cl)c1cccc(Cl)c1 (centres unmarked) [Example 457] | 3.87^[b]
O=C(NC1CCC1c1ccccc1C(F)(F)F)c1ncccc1Cl (centres unmarked) [Example 458] | 3.22^[b]
O=C(NC1CC1c1ccc(Cl)cc1)c1ccccc1C(F)F (centres unmarked) [Example 459] | 2.90^[b]
O=C(NC1CC1c1ccc(Cl)cc1)c1c(F)cccc1Cl (centres unmarked) [Example 463] | 2.83^[b]
O=C(NC1CC1c1ccc(Cl)cc1)c1c(F)cccc1I (centres unmarked) [Example 464] | 3.02^[b]
O=C(NC1CC1c1ccc(Cl)cc1)c1c(F)cc(F)cc1F (centres unmarked) [Example 466] | 2.80^[b]
O=C(NC1CC1c1ccc(Cl)cc1)c1ccccc1[N+](=O)[O-] (centres unmarked) [Example 467] | 2.59^[b]
Cn1cc(C(=O)NC2CCC2c2ccc(Cl)cc2Cl)c(C(F)F)n1 (centres unmarked) [Example 468] | 3.26^[b]
Cn1cc(C(=O)NC2CCC2c2ccc(Cl)cc2Cl)c(C(F)F)n1 (centres unmarked) [Example 469] | 2.95^[b]
O=C(NC1CCC1c1ccc(Cl)cc1Cl)c1cccnc1C(F)(F)F (centres unmarked) [Example 470] | 3.45^[b]
O=C(NC1CCC1c1ccc(Cl)cc1Cl)c1ccccc1Br (centres unmarked) [Example 471] | 3.92^[b]
O=C(NC1CCC1c1ccc(Cl)cc1Cl)c1ccccc1C(F)(F)F (centres unmarked) [Example 474] | 4.02^[b]
Cn1cc(C(=O)NC2CCC2c2c(F)cccc2F)c(C(F)F)n1 (centres unmarked) [Example 486] | 2.42^[b]

Next, values leading:

logP | Structure (SMILES)
3.75^[b] | O=C(NC1CCC1c1ccccc1Cl)c1cccc(Cl)c1 (centres unmarked) [Example 445]
3.70^[b] | O=C(NC1CCC1c1ccccc1Cl)c1ccc(Cl)cc1 (centres unmarked) [Example 446]
3.14^[b] | O=C(NC1CCC1c1ccccc1Cl)c1ccccc1 (centres unmarked) [Example 447]
3.36^[b] | O=C(NC1CCC1c1ccccc1Cl)c1cccc(Cl)c1 (centres unmarked) [Example 448]
2.81^[b] | O=C(NC1CCC1c1ccccc1Cl)c1ccccc1 (centres unmarked) [Example 449]
4.02^[b] | O=C(NC1CCC1c1ccc(F)cc1C(F)(F)F)c1cccc(Cl)c1 (centres unmarked) [Example 477]
4.23^[b] | O=C(NC1CCC1c1ccc(F)cc1C(F)(F)F)c1ncc(C(F)(F)F)cc1Cl (centres unmarked) [Example 480]
3.97^[b] | O=C(NC1CCC1c1ccc(F)cc1C(F)(F)F)c1ncc(C(F)(F)F)cc1Cl (centres unmarked) [Example 483]
3.02^[b] | Cn1cc(C(=O)NC2CCC2c2ccc(F)cc2C(F)(F)F)c(C(F)F)n1 (centres unmarked) [Example 484]
2.62^[b] | O=C(NC1CC1c1ccccc1Cl)c1cccnc1C(F)(F)F (centres unmarked) [Example 499]
2.79^[b] | O=C(NC1CC1c1ccccc1C(F)(F)F)c1cccnc1C(F)(F)F (centres unmarked) [Example 500]
2.75^[b] | O=C(NC1CCC1c1c(F)cccc1F)c1ccccc1 (centres unmarked) [Example 514]

Same assay, conditions: HPLC reversed phase, method [c] pH 7.8

logP | Structure (SMILES)
2.88^[c]; | O=C(NC1CC1c1ccc(Cl)cc1)c1ccccc1C(F)F (centres unmarked) [Example 459]
2.75^[c]; | O=C(NC1CC1c1ccc(Cl)cc1)c1c(F)cccc1Cl (centres unmarked) [Example 463]
2.99^[c]; | O=C(NC1CC1c1ccc(Cl)cc1)c1c(F)cccc1I (centres unmarked) [Example 464]
2.78^[c]; | O=C(NC1CC1c1ccc(Cl)cc1)c1c(F)cc(F)cc1F (centres unmarked) [Example 466]
2.45^[c]; | O=C(NC1CC1c1ccc(Cl)cc1)c1ccccc1[N+](=O)[O-] (centres unmarked) [Example 467]

Same assay, conditions: reversed phase HPLC columns, pH 2.7, HPLC on reversed phase column, method [b], pH 2.7; read-out: logP

chromatographic logP | Structure (SMILES)
2.79 | O=C(N[C@@H]1CC[C@H]1c1ccccc1C(F)(F)F)c1cccnc1Cl [Example 620]

Same assay, conditions: reversed phase HPLC columns, pH 2.7, HPLC on reversed phase columns, method [b] (pH 2.7); read-out: logP

Structure (SMILES) | chromatographic logP
O=C(N[C@@H]1CC[C@@H]1c1c(Cl)cccc1Cl)c1ccccc1[N+](=O)[O-] [Example 733] | 3.08
O=C(N[C@@H]1CC[C@@H]1c1c(Cl)cccc1Cl)c1nccnc1Cl [Example 734] | 3.07
O=C(N[C@@H]1CC[C@@H]1c1c(Cl)cccc1Cl)c1ccccc1I [Example 737] | 3.72
O=C(N[C@@H]1CC[C@@H]1c1c(Cl)cccc1Cl)c1ccc(Cl)cc1 [Example 738] | 3.36
Cc1nc(C(F)(F)F)c(C(=O)N[C@@H]2CC[C@@H]2c2c(Cl)cccc2Cl)s1 [Example 740] | 3.6
O=C(N[C@@H]1CC[C@@H]1c1c(Cl)cccc1Cl)c1ccc(Cl)cc1Cl [Example 741] | 4.1
O=C(N[C@@H]1CC[C@@H]1c1c(Cl)cccc1Cl)c1ccccc1Cl [Example 742] | 3.56
O=C(N[C@@H]1CC[C@@H]1c1c(Cl)cccc1Cl)c1sccc1I [Example 745] | 4.21
Cc1nc(C(F)(F)F)c(C(=O)N[C@@H]2CCC[C@@H]2c2ccc(C(F)(F)F)cc2)s1 [Example 747] | 3.71
O=C(N[C@@H]1C[C@]1(F)c1ccc(Cl)cc1)c1sccc1I [Example 749] | 3.15
O=C(N[C@@H]1C[C@]1(F)c1ccc(Cl)cc1)c1ccccc1Br [Example 751] | 2.84
O=C(N[C@@H]1C[C@]1(F)c1ccc(Cl)cc1)c1ccccc1Cl [Example 752] | 2.78
O=C(N[C@@H]1C[C@]1(F)c1ccc(Cl)cc1)c1ccccc1I [Example 753] | 2.98

More lines, now with the values ahead:

chromatographic logP | Structure (SMILES)
2.74 | O=C(N[C@@H]1CC[C@H]1c1ccc(Cl)cc1C(F)(F)F)c1cccnc1 [Example 732]
3.6 | O=C(N[C@@H]1CC[C@@H]1c1c(Cl)cccc1Cl)c1ccccc1Br [Example 735]
3.71 | O=C(N[C@@H]1CC[C@@H]1c1c(Cl)cccc1Cl)c1ccccc1C(F)(F)F [Example 736]
3.09 | O=C(N[C@@H]1CC[C@@H]1c1ccc(Cl)cc1C(F)(F)F)c1cccnc1Cl [Example 739]
3.32 | O=C(N[C@@H]1CC[C@@H]1c1c(Cl)cccc1Cl)c1ncccc1Cl [Example 743]
4.28 | O=C(N[C@@H]1CC[C@@H]1c1c(Cl)cccc1Cl)c1ncc(C(F)(F)F)cc1Cl [Example 744]
2.95 | O=C(N[C@@H]1CC[C@@H]1c1c(Cl)cccc1Cl)c1cccnc1C(F)(F)F [Example 746]
3.2 | O=C(N[C@@H]1CCC[C@@H]1c1ccc(C(F)(F)F)cc1)c1nccnc1Cl [Example 748]

Same assay, conditions: reversed phase HPLC columns, pH 2.7, HPLC reversed phase, method [b] (pH 2.7); read-out: logP

chromatographic logP | Structure (SMILES)
4.4 | O=C(N[C@@H]1CC[C@H]1c1ccc(Cl)cc1Cl)c1cccc(Cl)c1 [Example 454]
3.35 | O=C(N[C@@H]1CC[C@@H]1c1ccccc1Cl)c1ccc(Cl)cc1 [Example 455]
3.61 | O=C(N[C@@H]1CC[C@H]1c1ccccc1C(F)(F)F)c1ccccc1I [Example 497]
3.42 | O=C(N[C@@H]1CC[C@H]1c1ccccc1C(F)(F)F)c1ccccc1Cl [Example 498]
